ChEMBL document CHEMBL1201862, “PubChem BioAssay data set” (2004)
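Five compound concentrations were applied to cells in 96-well plates for 48 hours; endpoints were derived by simple linear interpolation of the resulting dose-response curve. At the GI50, growth is halved.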 Active and inactive are the calls of the source. Cut-off read from the data, not from the text of the source: active = GI50 up to about 1.1 µM and inactive = higher. Residues, ends and D or L forms follow the SMILES beside them. *: point of attachment. Boc = CC(C)(C)OC(=O)*; OBn = c1ccc(CO*)cc1

Legend:
Test in all cases: growth of human tumour cells (NCI), 48 h
786-0 = system: 786-0
DU-145 = system: DU-145
EKVX = system: EKVX
HCT-116 = system: HCT-116
Hs-578T = system: Hs-578T
IGROV-1 = system: IGROV-1
K562 = system: K562
KM12 = system: KM12
LOX IMVI = system: LOX IMVI
M14 = system: M14
MDA-MB-435 = system: MDA-MB-435
MOLT-4 = system: MOLT-4
NCI-H460 = system: NCI-H460
SK-MEL-5 = system: SK-MEL-5
SNB-75 = system: SNB-75
T47D = system: T47D
TK-10 = system: TK-10
U-251 = system: U-251
UACC-257 = system: UACC-257
A498 = system: A498

Measured: GI50

O=C(OCCN=c1c2ccccc2ccc2ccccc12)c1ccc([N+](=O)[O-])cc1
inactive: 786-0 > 100 µM | DU-145 > 100 µM | EKVX > 100 µM | HCT-116 > 100 µM | Hs-578T > 100 µM | IGROV-1 > 100 µM | K562 > 100 µM | KM12 > 100 µM | LOX IMVI > 100 µM | M14 > 100 µM | MDA-MB-435 > 100 µM | MOLT-4 > 100 µM | NCI-H460 > 100 µM | SK-MEL-5 > 100 µM | SNB-75 > 100 µM | T47D > 100 µM | TK-10 > 100 µM | U-251 > 100 µM | UACC-257 > 100 µM

Cc1ccccc1C(O)(c1nccn1C)c1nccn1C
inactive: 786-0 > 100 µM | A498 > 100 µM | DU-145 > 100 µM | EKVX > 100 µM | HCT-116 > 100 µM | Hs-578T > 100 µM | IGROV-1 > 100 µM | K562 > 100 µM | KM12 > 100 µM | M14 > 100 µM | MDA-MB-435 > 100 µM | MOLT-4 > 100 µM | NCI-H460 > 100 µM | SK-MEL-5 > 100 µM | SNB-75 > 100 µM | T47D > 100 µM | TK-10 > 100 µM | U-251 > 100 µM | UACC-257 > 100 µM

CCOC(=O)C1C(c2ccco2)C2(C#N)C(=N)OC1(C)C2(C#N)C#N (configuration not stated)
inactive: 786-0 > 100 µM | A498 > 100 µM | DU-145 > 100 µM | EKVX > 100 µM | HCT-116 > 100 µM | Hs-578T > 100 µM | IGROV-1 > 100 µM | K562 > 100 µM | KM12 > 100 µM | LOX IMVI > 100 µM | M14 > 100 µM | MDA-MB-435 > 100 µM | MOLT-4 > 100 µM | SK-MEL-5 > 100 µM | SNB-75 57.7 µM | T47D > 100 µM | TK-10 > 100 µM | U-251 > 100 µM | UACC-257 > 100 µM

COc1ccc(/N=N/C(=N/NC(=O)c2ccccc2)c2ccc(N(CCC#N)CCC#N)cc2C)cc1
inactive: 786-0 47.5 µM | A498 25.6 µM | DU-145 81.3 µM | EKVX 97.9 µM | HCT-116 29.9 µM | Hs-578T 23.4 µM | IGROV-1 42.8 µM | K562 19.5 µM | KM12 11.6 µM | M14 50.5 µM | MDA-MB-435 5.43 µM | MOLT-4 49.5 µM | NCI-H460 23.1 µM | SK-MEL-5 18.2 µM | SNB-75 43 µM | T47D 53.7 µM | TK-10 > 100 µM | U-251 60.5 µM | UACC-257 78.7 µM

CCn1c(CCCc2nc3c(=O)n(C)c(=O)n(C)c3[nH]2)nc2c1c(=O)n(C)c(=O)n2C
inactive: 786-0 > 100 µM | A498 > 100 µM | DU-145 > 100 µM | EKVX 43 µM | HCT-116 > 100 µM | Hs-578T > 100 µM | IGROV-1 > 100 µM | K562 75.7 µM | KM12 > 100 µM | LOX IMVI > 100 µM | M14 > 100 µM | MDA-MB-435 > 100 µM | MOLT-4 > 100 µM | NCI-H460 > 100 µM | SK-MEL-5 14 µM | T47D > 100 µM | TK-10 > 100 µM | U-251 > 100 µM | UACC-257 > 100 µM

CC1=NN(c2cccc(Cl)c2)C2(SCC(=O)N2c2nc3ccccc3s2)/C1=C\c1ccc(N(C)C)cc1 (configuration not stated)
inactive: 786-0 43.8 µM | A498 27.9 µM | DU-145 > 100 µM | EKVX > 100 µM | HCT-116 > 100 µM | Hs-578T 21 µM | IGROV-1 54.7 µM | K562 43.8 µM | KM12 > 100 µM | LOX IMVI > 100 µM | M14 > 100 µM | MDA-MB-435 > 100 µM | MOLT-4 48.5 µM | NCI-H460 20.9 µM | SK-MEL-5 39.7 µM | T47D 34.8 µM | TK-10 33 µM | U-251 35.7 µM | UACC-257 56.8 µM

NS(=O)(=O)c1nnc(NSc2ccc([N+](=O)[O-])cc2)s1
inactive: 786-0 > 100 µM | A498 > 100 µM | DU-145 > 100 µM | EKVX > 100 µM | HCT-116 > 100 µM | Hs-578T > 100 µM | K562 > 100 µM | KM12 > 10 µM | LOX IMVI > 100 µM | M14 > 100 µM | MDA-MB-435 > 100 µM | MOLT-4 40.8 µM | NCI-H460 > 100 µM | SK-MEL-5 > 100 µM | T47D > 100 µM | TK-10 > 100 µM | U-251 > 100 µM | UACC-257 > 100 µM

Cc1ccc2nc(N/N=C/c3sccc3C)cc(C)c2c1
inactive: 786-0 29.2 µM | A498 > 100 µM | DU-145 > 100 µM | EKVX > 100 µM | HCT-116 42.6 µM | Hs-578T 83.2 µM | IGROV-1 37.2 µM | K562 > 100 µM | KM12 > 100 µM | LOX IMVI > 100 µM | M14 > 100 µM | MDA-MB-435 > 100 µM | MOLT-4 > 100 µM | SK-MEL-5 28.8 µM | SNB-75 38.7 µM | T47D > 100 µM | TK-10 29.1 µM | U-251 92.7 µM | UACC-257 > 100 µM

CC(NC(=O)CNC(=O)OC(C)(C)C)C(=O)NC(Cc1ccccc1)C(=O)OCc1ccccc1 (stereo not drawn) (Boc-Gly-Ala-Phe-OBn; configuration not given here)
inactive: 786-0 27.9 µM | A498 > 100 µM | DU-145 > 100 µM | EKVX > 100 µM | HCT-116 14.9 µM | Hs-578T 11.2 µM | IGROV-1 > 100 µM | K562 40.3 µM | KM12 > 100 µM | LOX IMVI 7.23 µM | M14 > 100 µM | MDA-MB-435 > 100 µM | MOLT-4 36 µM | SK-MEL-5 > 100 µM | SNB-75 56.2 µM | T47D > 100 µM | TK-10 > 100 µM | U-251 > 100 µM | UACC-257 > 100 µM

O=S(=O)(c1ccc(Br)cc1)N1CCN(S(=O)(=O)c2ccc(Br)cc2)CC1
inactive: 786-0 > 100 µM | A498 > 100 µM | DU-145 > 100 µM | EKVX > 100 µM | HCT-116 > 100 µM | Hs-578T > 100 µM | IGROV-1 > 100 µM | K562 5.87 µM | KM12 > 100 µM | LOX IMVI > 100 µM | M14 > 100 µM | MDA-MB-435 > 100 µM | MOLT-4 1.71 µM | SK-MEL-5 > 100 µM | SNB-75 > 100 µM | T47D > 100 µM | TK-10 > 100 µM | U-251 > 100 µM | UACC-257 > 100 µM

O=C1CC(CC(=O)c2ccc(Br)cc2)C(O)=C1C(=O)c1ccc(Br)cc1 (configuration not stated)
inactive: 786-0 > 100 µM | A498 77.1 µM | DU-145 > 100 µM | EKVX > 100 µM | HCT-116 54.2 µM | Hs-578T 50 µM | IGROV-1 > 100 µM | K562 44.9 µM | KM12 11.5 µM | LOX IMVI 79.1 µM | M14 85.5 µM | MDA-MB-435 > 100 µM | MOLT-4 41.7 µM | NCI-H460 50.7 µM | SK-MEL-5 > 100 µM | T47D 71.6 µM | TK-10 > 100 µM | U-251 45.4 µM | UACC-257 > 100 µM

COc1c(-c2ccc(F)cc2)oc2cc(O)cc(O)c2c1=O
inactive: 786-0 32.8 µM | A498 47.6 µM | DU-145 29 µM | EKVX 14.6 µM | HCT-116 30.5 µM | Hs-578T 35.2 µM | IGROV-1 21.4 µM | K562 38.9 µM | KM12 30.5 µM | LOX IMVI 21.8 µM | M14 34.8 µM | MDA-MB-435 32.1 µM | MOLT-4 24.2 µM | NCI-H460 21.7 µM | SK-MEL-5 16.5 µM | SNB-75 19.2 µM | T47D 18.8 µM | U-251 30.5 µM

Cc1ccc(S(=O)(=O)N/N=C2\C3CC4CC(C3)C2C4)cc1 (configuration not stated)
inactive: 786-0 > 100 µM | DU-145 > 10 µM | HCT-116 > 10 µM | Hs-578T > 100 µM | IGROV-1 > 100 µM | K562 > 100 µM | KM12 > 100 µM | LOX IMVI > 100 µM | M14 > 100 µM | MDA-MB-435 > 100 µM | MOLT-4 > 100 µM | NCI-H460 > 100 µM | SK-MEL-5 > 100 µM | SNB-75 > 100 µM | T47D > 100 µM | TK-10 > 100 µM | U-251 > 100 µM | UACC-257 > 100 µM

CC(C)(C)OC(=O)NNCC(O)COc1ccccc1 (configuration not stated)
inactive: 786-0 > 100 µM | A498 > 100 µM | DU-145 > 100 µM | EKVX > 100 µM | HCT-116 > 100 µM | Hs-578T > 100 µM | IGROV-1 > 100 µM | K562 > 100 µM | LOX IMVI > 100 µM | M14 > 100 µM | MDA-MB-435 > 100 µM | MOLT-4 > 100 µM | NCI-H460 > 100 µM | SK-MEL-5 > 100 µM | T47D > 100 µM | TK-10 > 100 µM | U-251 > 100 µM | UACC-257 > 100 µM
